Results on one molecule are retold here after patent US20230414624A1, “METHODS OF TREATING NEUROLOGICAL VENTILATORY INSUFFICIENCY” (Enalare Therapeutics Inc., priority 2022, published 2023).

Entries after “also recorded” stand apart in the source; their conditions may differ.

The test system of one series is premature lambs. As to the kind of experiment: Premature (preterm) lamb proof of concept study: spontaneous ventilation under IV bolus and ascending continuous infusion. It counts as in vivo. Here is the method:
One set of twin lambs were to be delivered premature via cesarian section, stabilized and managed for four hours. […] The protocol was reviewed and approved by the Institutional Animal Care and Use Committee at Thomas D. Morris, Inc., where the study was conducted.
During delivery and with local anesthesia (1 ml; 2% Lidocaine), lambs were instrumented with an endotracheal tube as well as carotid arterial and jugular catheters through an incision at approximately the midpoint of the anterior neck. Once the umbilical cord was tied and severed, lambs were transferred to a heated surgical bed under a radiant warming lamb. The arterial catheter was connected to a transducer for pressure monitoring and the venous catheter was connected to a pump for continuous infusion of 5% dextrose in water (D5W) at a rate of 6 ml/kg/hr. A reaction thermistor was inserted to monitor temperature and lambs were covered with plastic to minimize evaporative heat loss. The airway was suctioned and Surfactant (Curosurf, 2.5 ml/kg) was administered intratracheally over a period of 5 minutes in 4 positions (Trendelenburg, reverse Trendelenburg, and left and right lateral decubitus positions). Lambs were to receive four mechanical breaths for lung recruitment and then started on CPAP initiated at 5 cmH2O and continuously optimized to effect (4-8 cmH2O) along with fraction of inspired oxygen (FIO2) over the course of the study.
The formulation used was a 10 mg/mL aqueous solution (adjusted for the hydrogen sulfate salt and impurities) with a citric acid buffer and a pH of 3.2. The infusion was with ascending dose hourly, while the second lamb was to serve as sham control. […] The four, hourly doses are described in table 1.
For pulmonary function assessments, a pneumotach was placed between the endotracheal tube and the CPAP connector. At least ten representative breaths free of movement of atypical breathing artifact were recorded using a pulmonary function system designed for neonatal research (NewLifeBox-R, Advanced Life Diagnostics, Weener, Germany). For each period the rate, tidal volumes and minute ventilation was derived from an average of the ten breaths. To maintain a stable plain of anesthesia, repeat doses of fentanyl (1 μg IM) were given as needed throughout the protocol based on blood pressure response to stimulation. At the conclusion of the study, animals were sacrificed and tissue sampled harvested for subsequent histopathology.

Another series has as its system adult humans. To be noted: 0.4 mg/kg/hr infusion; cited from earlier work.
For series [1] the following is noted: 3 mg/kg IV bolus, animals; cited from earlier work.
Where [2] appears, read: test lamb, ascending hourly infusion.

Turning to `CCCNc1nc(NCCC)nc(N(C)OC)n1` [Compound 1, N-(4,6-Bis-n-propylamino-[1,3,5]triazin-2-yl)-O,N-dimethyl-hydroxylamine], in the series with premature lambs (after bolus administration of a loading dose), the “Spontaneous breathing, both lambs” value is given as “immediately resulted in spontaneous breathing in both lambs”. The “Respiratory rate (RR), course over the four hours” value in the series on premature lambs (in vivo) is “gradually decreased”. Also, the “Spontaneous breathing after IV bolus” value with premature lambs (sham lamb 4.1 kg, no spontaneous breathing before, single IV bolus 2.4 mg/kg, no infusion) is on record as “the lamb began breathing spontaneously. After several minutes, the spontaneous breathing efforts abated”. Also, the “Spontaneous breathing after IV bolus loading dose” value in the series with premature lambs (test lamb 3.2 kg, no spontaneous breathing before, IV bolus 3.1 mg/kg during 0.4 mg/kg/hr infusion, then continuous infusion for four hours) was “the lamb began breathing spontaneously and never again required manual intervention”. Besides, the “Spontaneous minute ventilation (MV) at baseline and for 10 minutes after start of infusion” value in the series on premature lambs (test lamb, 0.4 mg/kg/hr infusion without loading dose) is “zero”. Moreover, in the series with premature lambs (test lamb, IV bolus 3.1 mg/kg), the “Spontaneous minute ventilation (MV) immediately following the bolus loading dose” value is “approximately 1,100 mL/min”. In the series with premature lambs (setting [2]), the “End tidal carbon dioxide level (EtCO2), course over the four hours” value was “concomitant decrease; also recorded: progressive decline”; the “Heart rate and mean arterial pressure through the four hours” value is on record as “stable”; the “Tidal volume, course over the four hours” value is reported as “consistent rise”. In addition, in the series with premature lambs (test lamb, ascending hourly infusion 0.4, 1.1, 2.0, 12 mg/kg/hr), the “Minute ventilation (MV), course over the four hours” value is “continued to rise”. Further, the “Minute ventilation (MV), all but the first three measurements of spontaneous breathing” value with premature lambs (test lamb, ascending hourly infusion, 1,344 mL/min = maximal MV of literature mechanical ventilation) is “exceeded 1,344 mL/min”. Besides, the “Tidal volume per kg of body weight versus lung protective range” value with premature lambs (test lamb, ascending hourly infusion, range 4 to 6 mL/kg) is “at least as deep and ultimately surpassed the lung protective range of 4 to 6 mL/kg; also recorded: always within or above the noted target tidal volume range”. In addition, the Respiratory rate in the series on premature lambs (test lamb, whole study period, normal newborn lamb 36 to 48) is given as at least 70 breaths per minute. Also, in the series with adult humans, the “Efficacy of the low dose in adult humans” value was “minimal effect; also recorded: limited efficacy; also recorded: humans; minimal efficacy”. Moreover, the “Plasma levels after bolus intravenous injection” value in series [1] was “transient therapeutic plasma levels”.
